According to US11472791B2 (Incyte Corporation, priority 2019, dated 2022):

Target: CDK2/Cyclin E1 (Homo sapiens (Human), UniProt P24941)
Test: CDK2/Cyclin E1 HTRF enzyme activity assay
Type: biochemical
Details: 1 mM ATP
Protocol: Assays are conducted in white 384-well polystyrene plates in a final reaction volume of 8 μL. […] HTRF signals are read after 1 hour at room temperature on a PHERAstar FS plate reader (BMG Labtech). Data is analyzed with IDBS XLFit and GraphPad Prism 5.0 software using a three or four parameter dose response curve to determine IC50 for each compound.

## Cc1cc(CN2CCN(C(C)C)CC2)ccc1-n1cc(-c2nc(NC3CCN(S(=O)(=O)c4cn(C)cn4)CC3)ncc2Cl)cn1 [Example 247, 5-Chloro-4-(1-(4-((4-isopropylpiperazin-1-yl)methyl)-2-methylphenyl)-1H-pyrazol-4-yl)-N-(1-((1-methyl-1H-imidazole-4-yl)sulfonyl)piperidin-4-yl)pyrimidin-2-amine]
  IC50: < 0.05 µM

## Cc1cc(CN2CCN(C)C(=O)C2)ccc1-n1cc(-c2nc(NC3CCN(S(=O)(=O)c4cn(C)cn4)CC3)ncc2Cl)cn1 [Example 248, 4-(4-(4-(5-Chloro-2-((1-((1-methyl-1H-imidazol-4-yl)sulfonyl)piperidin-4-yl)amino)pyrimidin-4-yl)-1H-pyrazol-1-yl)-3-methylbenzyl)-1-methylpiperazin-2-one]
  IC50: < 0.05 µM

## Cc1nc(CN2CCN(C)CC2)ccc1-n1cc(-c2nc(NC3CCN(S(=O)(=O)c4cn(C)cn4)CC3)ncc2Cl)cn1 [Example 249, 5-Chloro-N-(1-((1-methyl-1H-imidazol-4-yl)sulfonyl)piperidin-4-yl)-4-(1-(2-methyl-6-((4-methylpiperazin-1-yl)methyl)pyridin-3-yl)-1H-pyrazol-4-yl)pyrimidin-2-amine]
  IC50: < 0.05 µM

## CCN1CCN(Cc2ccc(-n3cc(-c4nc(NC5CCN(S(=O)(=O)c6cn(C)cn6)CC5)ncc4Cl)cn3)c(C)n2)CC1 [Example 250, 5-Chloro-4-(1-(6-((4-ethylpiperazin-1-yl)methyl)-2-methylpyridin-3-yl)-1H-pyrazol-4-yl)-N-(1-((1-methyl-1H-imidazol-4-yl)sulfonyl)piperidin-4-yl)pyrimidin-2-amine]
  IC50: < 0.05 µM

## Cc1nc(CN2CCN(C(C)C)CC2)ccc1-n1cc(-c2nc(NC3CCN(S(=O)(=O)c4cn(C)cn4)CC3)ncc2Cl)cn1 [Example 251, 5-Chloro-4-(1-(6-((4-isopropylpiperazin-1-yl)methyl)-2-methylpyridin-3-yl)-1H-pyrazol-4-yl)-N-(1-((1-methyl-1H-imidazol-4-yl)sulfonyl)piperidin-4-yl)pyrimidin-2-amine]
  IC50: < 0.05 µM

## Cc1nc(CN2CCN(C)CC2)ccc1-n1cc(-c2nc(NC3CCN(S(=O)(=O)c4cn(C)cn4)CC3)ncc2C(F)(F)F)cn1 [Example 252, N-(1-((1-Methyl-1H-imidazol-4-yl)sulfonyl)piperidin-4-yl)-4-(1-(2-methyl-6-((4-methylpiperazin-1-yl)methyl)pyridin-3-yl)-1H-pyrazol-4-yl)-5-(trifluoromethyl)pyrimidin-2-amine]
  IC50: < 0.05 µM

## CCN1CCN(Cc2ccc(-n3cc(-c4nc(NC5CCN(S(=O)(=O)c6cn(C)cn6)CC5)ncc4C(F)(F)F)cn3)c(C)n2)CC1 [Example 253, 4-(1-(6-((4-Ethylpiperazin-1-yl)methyl)-2-methylpyridin-3-yl)-1H-pyrazol-4-yl)-N-(1-((1-methyl-1H-imidazol-4-yl)sulfonyl)piperidin-4-yl)-5-(trifluoromethyl)pyrimidin-2-amine]
  IC50: < 0.05 µM

## Cc1nc(CN2CCN(C(C)C)CC2)ccc1-n1cc(-c2nc(NC3CCN(S(=O)(=O)c4cn(C)cn4)CC3)ncc2C(F)(F)F)cn1 [Example 254, 4-(1-(6-((4-Isopropylpiperazin-1-yl)methyl)-2-methylpyridin-3-yl)-1H-pyrazol-4-yl)-N-(1-((1-methyl-1H-imidazol-4-yl)sulfonyl)piperidin-4-yl)-5-(trifluoromethyl)pyrimidin-2-amine]
  IC50: < 0.05 µM

## Cc1nc(CN2CCN(C)CC2)ccc1-n1cc(-c2nc(N[C@H]3CCN(S(=O)(=O)c4cn(C)cn4)C[C@H]3C)ncc2C(F)(F)F)cn1 [Example 255, N-((3R,4S)-3-methyl-1-((1-methyl-1H-imidazol-4-yl)sulfonyl)piperidin-4-yl)-4-(1-(2-methyl-6-((4-methylpiperazin-1-yl)methyl)pyridin-3-yl)-1H-pyrazol-4-yl)-5-(trifluoromethyl)pyrimidin-2-amine]
  IC50: < 0.05 µM

## CCN1CCN(Cc2ccc(-n3cc(-c4nc(N[C@H]5CCN(S(=O)(=O)c6cn(C)cn6)C[C@H]5C)ncc4C(F)(F)F)cn3)c(C)n2)CC1 [Example 256, 4-(1-(6-((4-Ethylpiperazin-1-yl)methyl)-2-methylpyridin-3-yl)-1H-pyrazol-4-yl)-N-((3R,4S)-3-methyl-1-((1-methyl-1H-imidazol-4-yl)sulfonyl)piperidin-4-yl)-5-(trifluoromethyl)pyrimidin-2-amine]
  IC50: < 0.05 µM

## Cc1nc(CN2CCN(C(C)C)CC2)ccc1-n1cc(-c2nc(N[C@H]3CCN(S(=O)(=O)c4cn(C)cn4)C[C@H]3C)ncc2C(F)(F)F)cn1 [Example 257, 4-(1-(6-((4-Isopropylpiperazin-1-yl)methyl)-2-methylpyridin-3-yl)-1H-pyrazol-4-yl)-N-((3R,4S)-3-methyl-1-((1-methyl-1H-imidazol-4-yl)sulfonyl)piperidin-4-yl)-5-(trifluoromethyl)pyrimidin-2-amine]
  IC50: < 0.05 µM

## CN1CCN(Cc2ccc(-n3cc(-c4nc(NC5CCN(S(=O)(=O)c6ccccn6)CC5)ncc4C#N)cn3)c(Cl)c2)CC1 [Example 258, 4-(1-(2-Chloro-4-((4-methylpiperazin-1-yl)methyl)phenyl)-1H-pyrazol-4-yl)-2-((1-(pyridin-2-ylsulfonyl)piperidin-4-yl)amino)pyrimidine-5-carbonitrile]
  IC50: < 0.05 µM

## CN1CCN(Cc2ccc(-n3cc(-c4nc(NC5CCN(S(=O)(=O)C6CC6)CC5)ncc4C#N)cn3)c(Cl)c2)CC1 [Example 259, 4-(1-(2-Chloro-4-((4-methylpiperazin-1-yl)methyl)phenyl)-1H-pyrazol-4-yl)-2-((1-(cyclopropylsulfonyl)piperidin-4-yl)amino)pyrimidine-5-carbonitrile]
  IC50: < 0.05 µM

## CN1CCN(Cc2ccc(-n3cc(-c4nc(NC5CCN(S(=O)(=O)c6cn(C)cn6)CC5)ncc4C#N)cn3)c(Cl)c2)CC1 [Example 261, 4-(1-(2-Chloro-4-((4-methylpiperazin-1-yl)methyl)phenyl)-1H-pyrazol-4-yl)-2-((1-((1-methyl-1H-imidazol-4-yl)sulfonyl)piperidin-4-yl)amino)pyrimidine-5-carbonitrile]
  IC50: < 0.05 µM

## Cc1nc(CNC(C)(C)C)ccc1-n1cc(-c2nc(NC3CCN(S(C)(=O)=O)CC3)ncc2C#N)cn1 [Example 262, 4-(1-(6-((tert-Butylamino)methyl)-2-methylpyridin-3-yl)-1H-pyrazol-4-yl)-2-((1-(methylsulfonyl)piperidin-4-yl)amino)pyrimidine-5-carbonitrile]
  IC50: < 0.05 µM

## Cc1nc(CNC(C)(C)C2CC2)ccc1-n1cc(-c2nc(NC3CCN(S(C)(=O)=O)CC3)ncc2C#N)cn1 [Example 263, 4-(1-(6-(((2-Cyclopropylpropan-2-yl)amino)methyl)-2-methylpyridin-3-yl)-1H-pyrazol-4-yl)-2-((1-(methylsulfonyl)piperidin-4-yl)amino)pyrimidine-5-carbonitrile]
  IC50: < 0.05 µM

## Cc1nc(CNC(C)(C)C(N)=O)ccc1-n1cc(-c2nc(NC3CCN(S(C)(=O)=O)CC3)ncc2C#N)cn1 [Example 264, 2-(((5-(4-(5-Cyano-2-((1-(methylsulfonyl)piperidin-4-yl)amino)pyrimidin-4-yl)-1H-pyrazol-1-yl)-6-methylpyridin-2-yl)methyl)amino)-2-methylpropanamide]
  IC50: < 0.05 µM

## Cc1nc(CN[C@]2(C)C[C@H](O)C2)ccc1-n1cc(-c2nc(NC3CCN(S(C)(=O)=O)CC3)ncc2C#N)cn1 [Example 265]
  IC50: < 0.05 µM

## CNCc1ccc(-n2cc(-c3nc(NC4CCN(S(=O)(=O)c5cn(C)cn5)CC4)ncc3Cl)cn2)c(C)n1 [Example 266, 5-Chloro-N-(1-((1-methyl-1H-imidazol-4-yl)sulfonyl)piperidin-4-yl)-4-(1-(2-methyl-6-((methylamino)methyl)pyridin-3-yl)-1H-pyrazol-4-yl)pyrimidin-2-amine]
  IC50: < 0.05 µM

## CCNCc1ccc(-n2cc(-c3nc(NC4CCN(S(=O)(=O)c5cn(C)cn5)CC4)ncc3Cl)cn2)c(C)n1 [Example 267, 5-Chloro-4-(1-(6-((ethylamino)methyl)-2-methylpyridin-3-yl)-1H-pyrazol-4-yl)-N-(1-((1-methyl-1H-imidazol-4-yl)sulfonyl)piperidin-4-yl)pyrimidin-2-amine]
  IC50: < 0.05 µM

## CNCc1ccc(-n2cc(-c3nc(NC4CCN(S(=O)(=O)c5cn(C)cn5)CC4)ncc3C(F)(F)F)cn2)c(C)n1 [Example 268, N-(1-((1-Methyl-1H-imidazol-4-yl)sulfonyl)piperidin-4-yl)-4-(1-(2-methyl-6-((methylamino)methyl)pyridin-3-yl)-1H-pyrazol-4-yl)-5-(trifluoromethyl)pyrimidin-2-amine]
  IC50: < 0.05 µM

## CCNCc1ccc(-n2cc(-c3nc(NC4CCN(S(=O)(=O)c5cn(C)cn5)CC4)ncc3C(F)(F)F)cn2)c(C)n1 [Example 269, 4-(1-(6-((Ethylamino)methyl)-2-methylpyridin-3-yl)-1H-pyrazol-4-yl)-N-(1-((1-methyl-1H-imidazol-4-yl)sulfonyl)piperidin-4-yl)-5-(trifluoromethyl)pyrimidin-2-amine]
  IC50: < 0.05 µM

## CNCc1ccc(-n2cc(-c3nc(N[C@H]4CCN(S(=O)(=O)c5cn(C)cn5)C[C@H]4C)ncc3C(F)(F)F)cn2)c(C)n1 [Example 270, N-((3R,4S)-3-Methyl-1-((1-methyl-1H-imidazol-4-yl)sulfonyl)piperidin-4-yl)-4-(1-(2-methyl-6-((methylamino)methyl)pyridin-3-yl)-1H-pyrazol-4-yl)-5-(trifluoromethyl)pyrimidin-2-amine]
  IC50: < 0.05 µM

## CCNCc1ccc(-n2cc(-c3nc(N[C@H]4CCN(S(=O)(=O)c5cn(C)cn5)C[C@H]4C)ncc3C(F)(F)F)cn2)c(C)n1 [Example 271, 4-(1-(6-((Ethylamino)methyl)-2-methylpyridin-3-yl)-1H-pyrazol-4-yl)-N-((3R,4S)-3-methyl-1-((1-methyl-1H-imidazol-4-yl)sulfonyl)piperidin-4-yl)-5-(trifluoromethyl)pyrimidin-2-amine]
  IC50: < 0.05 µM
